Numbers after ± are expanded uncertainties.
What was measured:
[1] = 96 kPa, Liquid, Pycnometric method
[2] = xn = mol fraction of the nth substance listed; conditions: 96 kPa, Liquid, Pycnometric method, x2 = 0

Structure (SMILES)	mass density ([1]; 288.15 K) [kg/m3]	mass density ([1]; 293.15 K) [kg/m3]	mass density ([1]; 298.15 K) [kg/m3]	mass density ([1]; 303.15 K) [kg/m3]	mass density ([1]; 308.15 K) [kg/m3]	mass density ([1]; 313.15 K) [kg/m3]	mass density ([1]; 318.15 K) [kg/m3]	mass density ([1]; 323.15 K) [kg/m3]	mass density ([1]; 328.15 K) [kg/m3]	mass density ([2]; 288.15 K) [kg/m3]	mass density ([2]; 293.15 K) [kg/m3]	mass density ([2]; 298.15 K) [kg/m3]	mass density ([2]; 303.15 K) [kg/m3]	mass density ([2]; 308.15 K) [kg/m3]	mass density ([2]; 313.15 K) [kg/m3]	mass density ([2]; 318.15 K) [kg/m3]	mass density ([2]; 323.15 K) [kg/m3]	mass density ([2]; 328.15 K) [kg/m3]
OCC(O)CO [glycerol]	1262.7 ± 8.2	1260.5 ± 8.2	1257.2 ± 8.2	1254.8 ± 8.2	1251.5 ± 8.2	1248.9 ± 8.2	1246 ± 8.2	1242.4 ± 8.2	1240.5 ± 8.2	–	–	–	–	–	–	–	–	–
C1CCC2=NCCCN2CC1 [1,8-diaza-7-bicyclo[5.4.0]undecene]	1020.6 ± 8.2	1017.1 ± 8.2	1014.1 ± 8.2	1010.9 ± 8.2	1007.4 ± 8.2	1004.6 ± 8.2	1000.8 ± 8.2	998.4 ± 8.2	994.2 ± 8.2	–	–	–	–	–	–	–	–	–
OCC(O)CO [glycerol] + C1CCC2=NCCCN2CC1	–	–	–	–	–	–	–	–	–	1262.7 ± 8.2	1260.5 ± 8.2	1257.2 ± 8.2	1254.8 ± 8.2	1251.5 ± 8.2	1248.9 ± 8.2	1246 ± 8.2	1242.4 ± 8.2	1240.5 ± 8.2
